Legend:
[1] = system: HS-PSS; assay: relative IC50 (inflection point of fitted dose-response curve, CellTox-Green cytotoxicity, 72 h; top asymptote may be below 50%); higher = less potent
In short: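 MPNST cell lines and primary human Schwann cells were incubated 72 h at 37 °C in 384-well plates holding five 10-fold compound dilutions. CellTox-Green was added before seeding at a final 1:1000 dilution and reported fluorescence from DNA released by disrupted cells. Signals were scaled to vehicle and positive-control wells, and cultures failing plate quality control were dropped. Drug sensitivity score and relative IC50 come from four-parameter logistic fits, with IC50 censored at the top concentration.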

[2] = system: HS-Sch-2; assay: relative IC50 (inflection point of fitted dose-response curve, CellTiter-Glo viability, 72 h; top asymptote may be below 50% inhibition); higher = less potent
In short: (§1)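 MPNST cell lines and primary human Schwann cells (750–1000 cells per well) went into 384-well plates preprinted with each compound at five concentrations in 10-fold steps. Plates were incubated 72 h at 37 °C, 5% CO2. Viability was read as CellTiter-Glo ATP luminescence, scaled between vehicle and positive-control wells, with duplicates averaged where present. Percent inhibition is at the top concentration; drug sensitivity score and relative IC50 (censored at top concentration) come from four-parameter logistic fits.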

[3] = system: HS-PSS; assay: as above
In short: as §1

[4] = system: YST-1; assay: as above
In short: as §1

| SMILES | relative IC50 [1] [µM] | relative IC50 [2] [µM] | relative IC50 [3] [µM] | relative IC50 [4] [µM] |
| --- | --- | --- | --- | --- |
| Cc1cc(-c2nc(-c3ccc(OC(F)(F)F)cc3)no2)nn1Cc1ccnc(N2CCN(C3CC3)CC2)c1 [BAY 87-2243] | > 1 | 0.00063 | 0.00066 |  |
| CNc1nc(-c2ccc3c(N)n[nH]c3c2)cc(N2C[C@@H](C(=O)NC3CCCCC3)CC[C@H]2C)n1 | > 10 |  | 3.05 | 0.585 |
| NC(=O)Nc1sc(-c2ccc(F)cc2)cc1C(N)=O [TPCA-1] | > 25 |  | 3.98 | 4.33 |
| N#Cc1c(Oc2ccc(F)c(NC(=O)Cc3cccc(C(F)(F)F)c3)c2)ccc2nc(NC(=O)C3CC3)sc12 [TAK-632] | > 10 | 3.86 | 3.98 |  |
| CCc1cc2c(cc1N1CCC(N3CCOCC3)CC1)C(C)(C)c1[nH]c3cc(C#N)ccc3c1C2=O [Alectinib] | > 1 | > 1 | 0.0348 |  |
| Nc1nc2[nH]cc(CCc3ccc(C(=O)N[C@@H](CCC(=O)O)C(=O)O)cc3)c2c(=O)[nH]1 [Pemetrexed] | > 10 | 0.0641 | > 10 |  |
| CNC(=O)[C@@H](NC(=O)[C@H](CC(C)C)[C@H](O)C(=O)NO)C(C)(C)C [Marimastat] | > 10 |  | > 10 | > 10 |
| CN(C)C(=O)c1ccc(S(=O)(=O)c2ccc(NC(=O)[C@@](C)(O)C(F)(F)F)c(Cl)c2)cc1 [AZD7545] | > 10 |  | 3.91 | > 10 |
| O[C@H]1CC[C@H](Nc2ncc3nc(Nc4c(F)cc(F)cc4F)n([C@H]4CCOC4)c3n2)CC1 [Tanzisertib] | > 10 | > 10 | > 10 |  |
| c1cn2cc(-c3ccc4cn[nH]c4c3)nc(Nc3ccc(N4CCOCC4)cc3)c2n1 [Entospletinib] | > 5 | > 5 | > 5 |  |
| COc1cc2ncnc(Oc3cccc(NC(=O)Nc4cc(C(C)(C)C(F)(F)F)on4)c3)c2cc1OC | > 10 | > 10 | > 10 |  |
| C=CC(=O)N1CCC(Oc2cc3c(Nc4ccc(Cl)c(Cl)c4F)ncnc3cc2OC)CC1 [Poziotinib] | > 1 | > 1 | > 1 |  |
| CC1(C)CCC(CN2CCN(c3ccc(C(=O)NS(=O)(=O)c4ccc(NCC5CCOCC5)c([N+](=O)[O-])c4)c(Oc4cnc5[nH]ccc5c4)c3)CC2)=C(c2ccc(Cl)cc2)C1 [Venetoclax] | > 1 | > 1 | > 1 |  |
| NS(=O)(=O)NCCNc1nonc1/C(=N/O)Nc1ccc(F)c(Br)c1 [Epacadostat] | > 10 |  | > 10 |  |
| CCNc1nc(Nc2cc(F)c(C(=O)N3CCOCC3)cc2OC)ncc1C(F)(F)F [GNE-7915] | > 1 |  | > 1 | > 1 |
| FC(F)(F)c1ccc(CNc2ccc(Cc3c[nH]c4ncc(Cl)cc34)cn2)cn1 [Pexidartinib] | > 10 |  | 1.74 |  |
| Cn1cnc2c(F)c(Nc3ccc(Br)cc3F)c(C(=O)NOCCO)cc21 [Binimetinib] | > 1 |  | > 1 | > 1 |
| OC(CC1c2ccccc2-c2cncn21)C1CCCCC1 (centres undefined) [NLG919] | > 10 | > 10 | > 10 |  |
| CNC(=O)c1c(F)cccc1Nc1nc(Nc2cc3c(cc2OC)CCN3C(=O)CN(C)C)nc2[nH]ccc12 |  |  | 0.0321 | 0.073 |
| Cc1cc([C@@H](C)Nc2ccccc2C(=O)O)c2nc(N3CCOCC3)cc(=O)n2c1 [AZD-6482] | > 2.5 | > 2.5 | > 2.5 |  |
| Nc1nc(N)c2nc(-c3cccc(O)c3)c(-c3cccc(O)c3)nc2n1 [TG100-115] | > 10 |  | > 10 |  |
| Cc1nc(-c2cn3c(n2)-c2ccc(-c4cnn(C(C)(C)C(N)=O)c4)cc2OCC3)n(C(C)C)n1 [Taselisib] | > 1 |  | 0.425 | 0.0249 |
| Cc1cc(C)c(/C=C2\C(=O)Nc3ccccc32)[nH]1 [Semaxanib] | 2.28 | > 10 | > 10 |  |
| COCC(=O)NC/C=C/c1ccc2ncnc(Nc3ccc(Oc4ccc(C)nc4)c(C)c3)c2c1 | > 10 | 1.25 | 1.54 |  |
| CC1CCC(n2c3cnccc3c3cnc(Nc4ccc5c(n4)CCN(C(=O)CO)C5)nc32)CC1 (centres undefined) [AMG-925] | > 1 |  | > 1 |  |
| Cc1cccc(CC(=O)N2CCc3c2ccc(-c2cn(C)c4ncnc(N)c24)c3F)n1 |  |  | 0.993 |  |

| SMILES | relative IC50 [1] [µM] | relative IC50 [2] [µM] | relative IC50 [3] [µM] | relative IC50 [4] [µM] |
| --- | --- | --- | --- | --- |
| C[C@H]1Oc2cc(cnc2N)-c2c(nn(C)c2C#N)CN(C)C(=O)c2ccc(F)cc21 | > 1 |  | 0.0107 | > 1 |
| Cc1cnc(-c2ccccc2C(C)C)nc1NCc1ccc(-n2ccnn2)cc1 [ML323] | > 10 | 1.46 | 1.67 |  |
| Cc1c(C(=O)Nc2ccc(N3C[C@@H](C)O[C@@H](C)C3)nc2)cccc1-c1ccc(OC(F)(F)F)cc1 [Sonidegib] | > 10 |  | 0.76 | > 10 |
| O=C(O)c1ccc(O)c2ncccc12 [IOX-1] | > 100 |  | > 100 | 36.6 |
| O=c1[nH]c(C2CCCN2)nc2c1oc1ccc(Cl)cc12 (centres undefined) |  |  | 1.5 | 1.22 |
| CNC(=O)c1ccc(-c2cnc3ncc(Cc4ccc5ncccc5c4)n3n2)cc1F [NVP-INC280] | > 1 |  | > 1 |  |
| Cc1csc(-c2nnc(Nc3ccc(Oc4ncccc4-c4ccnc(N)n4)cc3)c3ccccc23)c1 [AMG-900] | > 1 | 0.326 |  | 0.011 |
| CC(C)(C)C[C@@H]1N[C@@H](C(=O)N[C@H]2CC[C@H](O)CC2)[C@H](c2cccc(Cl)c2F)[C@]12C(=O)Nc1cc(Cl)ccc12 | > 10 |  | 3.28 | 0.14 |
| C[C@H](Nc1ncnc2nc[nH]c12)c1cc2cccc(Cl)c2c(=O)n1-c1ccccc1 [Duvelisib] |  |  | > 0.5 |  |
| O=C(O)CC1CC(c2ccccc2)=NO1 (centres undefined) [VGX-1027] | > 10 |  | > 10 | > 10 |
| Cc1ccc(NC(=O)c2ccc(CN3CC[C@H](N(C)C)C3)c(C(F)(F)F)c2)cc1Nc1nccc(-c2cncnc2)n1 [Bafetinib] | > 1 |  | > 1 | 0.259 |
| CCOc1ccn(-c2ccc(F)cc2)c(=O)c1C(=O)Nc1ccc(Oc2ccnc(N)c2Cl)c(F)c1 | > 2.5 | > 2.5 |  | > 2.5 |
| O=C(Nc1ccc(-c2ccnc(Nc3ccc(N4CCOCC4)cc3)n2)cc1)[C@H]1CCCN1 [XL019] | > 10 |  | 2.85 |  |
| COc1ccc(COc2cc3oc(=O)c4cc(C(C)O)ccc4c3cc2OC)cc1 (centres undefined) [Palomid-529] | > 10 | > 10 | > 10 |  |
| COC(=O)c1ccc2c(c1)[nH]c1ncnc(NCCCN3CCCCC3)c12 [UM729] | > 10 | 3.14 |  | 0.56 |
| CCCNC(=O)Nc1ccc(Oc2ncnc3cc(OC)c(OC)cc23)cc1Cl [KRN-633] | > 2.5 | > 2.5 |  | > 2.5 |
| CNC(=O)c1cc(COc2nnc(Nc3ccc(Cl)cc3)c3ccoc23)ccn1 [Telatinib] | > 10 | > 10 | > 10 |  |
| CCC(C)n1ncn(-c2ccc(N3CCN(c4ccc(OCC5COC(Cn6cncn6)(c6ccc(Cl)cc6Cl)O5)cc4)CC3)cc2)c1=O (centres undefined) [Itraconazole] | > 5 |  | 0.904 | 1.54 |
| CNc1nc(Nc2cn(C(C)(C)C#N)nc2C)ncc1C(F)(F)F [GNE-0877] | > 1 | > 1 |  | > 1 |
| COc1ccc2c(OCc3nnc4ccc(-c5ccccc5)nn34)ccnc2c1 [AMG-208] | > 2.5 | > 2.5 |  | > 2.5 |
| CCc1cc(Nc2nccc(-c3c(-c4ccc(OC)c(C(=O)Nc5c(F)cccc5F)c4)nc4ccccn34)n2)c(OC)cc1N1CCC(N2CCN(S(C)(=O)=O)CC2)CC1 | > 10 |  | > 10 | 0.0312 |
| Cn1ncnc1[C@H]1c2n[nH]c(=O)c3cc(F)cc(c23)N[C@@H]1c1ccc(F)cc1 [Talazoparib] | > 1 | 0.105 |  | 0.00915 |
| COc1cc2nccc(Oc3ccc(NC(=O)NC4CC4)c(Cl)c3)c2cc1C(N)=O [Lenvatinib] | > 2.5 |  | > 2.5 |  |
| CC(C)[C@@H](CS(=O)(=O)C(C)C)N1C(=O)[C@@](C)(CC(=O)O)C[C@H](c2cccc(Cl)c2)[C@H]1c1ccc(Cl)cc1 [AMG-232] | > 1 | > 1 |  | 0.19 |
| CNC(=O)CN1CCC(Oc2cc3c(Nc4cccc(Cl)c4F)ncnc3cc2OC)CC1 [Sapitinib] | > 1 |  | > 1 |  |

From the supplement of paper PMC5579334
